From ChEMBL document CHEMBL3860091, “Synthesis and activity of newly designed aroxyalkyl or aroxyethoxyethyl derivatives of piperazine on the cardiovascular and the central nervous systems” (Bioorg Med Chem Lett, 2016)
Calls of active or inactive are those of the source. The rule behind the calls is not given here.

Key:
[1] = Antidepressant-like activity in albino Swiss (CD-1) mouse assessed as immobility time at 2.5 mg/kg, ip administered 30 mins prior to test measured for last 4 mins of 6 mins observation by forced swim test (reference value: 178.3 +/- 12.3 sec); format: functional, organism-based
[2] = test system: Mus musculus; experiment: Toxicity in albino Swiss (CD-1) mouse assessed as effect on spontaneous locomotor activity by measuring number of crossings at 10 mg/kg, ip administered 30 mins prior to test measured for last 4 mins of 6 mins observation (reference value: 191.5 to 225.4); format: organism-based; settings: in vivo
[3] = test system: Rattus norvegicus; experiment: Hypotensive activity in normotensive anesthetized Wistar rat assessed as diastolic blood pressure at 0.1 mg/kg, iv measured 30 mins post dose (reference value: 81.6 to 115.2 mmHg); format: functional
[4] = test system: Rattus norvegicus; experiment: Hypotensive activity in normotensive anesthetized Wistar rat assessed as systolic blood pressure at 0.1 mg/kg, iv measured 30 mins post dose (reference value: 107.4 to 148.3 mmHg); format: functional
[5] = test system: Rattus norvegicus; experiment: Hypotensive activity in normotensive anesthetized Wistar rat assessed as systolic blood pressure at 0.1 mg/kg, iv measured 20 mins post dose (reference value: 107.4 to 148.3 mmHg); format: functional
[6] = test system: Rattus norvegicus; experiment: Hypotensive activity in normotensive anesthetized Wistar rat assessed as systolic blood pressure at 0.1 mg/kg, iv measured 60 mins post dose (reference value: 107.4 to 148.3 mmHg); format: functional
[7] = test system: Rattus norvegicus; experiment: Hypotensive activity in normotensive anesthetized Wistar rat assessed as systolic blood pressure at 0.1 mg/kg, iv measured 5 mins post dose (reference value: 107.4 to 148.3 mmHg); format: functional
[8] = test system: Rattus norvegicus; experiment: Hypotensive activity in normotensive anesthetized Wistar rat assessed as systolic blood pressure at 0.1 mg/kg, iv measured 10 mins post dose (reference value: 107.4 to 148.3 mmHg); format: functional
[9] = test system: Rattus norvegicus; experiment: Inhibition of methoxamine-induced pressor response in normotensive Wistar rat at 1 mg/kg, iv measured 5 mins post dose; format: functional, organism-based
[10] = test system: Rattus norvegicus; experiment: Inhibition of adrenaline-induced pressor response in normotensive Wistar rat at 1 mg/kg, iv measured 5 mins post dose; format: functional, organism-based
[11] = test system: Rattus norvegicus; experiment: Hypotensive activity in normotensive anesthetized Wistar rat assessed as diastolic blood pressure at 0.1 mg/kg, iv measured 5 mins post dose (reference value: 81.6 to 115.2 mmHg); format: functional

Row | Structure (SMILES) | TIME [1] [h] | Activity [2] | Activity [3] [mmHg] | Activity [4] [mmHg] | Activity [5] [mmHg] | Activity [6] [mmHg] | Activity [7] [mmHg] | Activity [8] [mmHg] | inhibition [9] | inhibition [10] | Activity [11] [mmHg]
1 | COc1ccccc1N1CCN(CCOCCOc2cccc(C)c2C)CC1.Cl.Cl | 0.0447 | 190 | – | – | – | – | – | – | – | – | –
2 | COc1ccccc1N1CCN(CCCCOc2c(C)cccc2C)CC1.Cl | – | – | 103 | 130.3 | 131.7 | 127.7 | 142.7 | 138.3 | Active | Active | 112.7
